Measured values taken from US8853258B2, “C-linked hydroxamic acid derivatives useful as antibacterial agents” (Pfizer Inc., priority 2009, dated 2014).
Converted amounts (≈) assume the structure as drawn.

Key:
Format in all cases: cell-based
[1] = system: Pseudomonas aeruginosa UI-18: Wild-type (PA-7); assay: MIC determination (CLSI), PA-7; conditions: for PA-7 MIC: Pseudomonas aeruginosa UI-18 wild-type PA-7; for MIC: Pseudomonas aeruginosa, Table 1, read-out: PA-7 (MIC)
Procedure: (§1) The in vitro antibacterial activity of compounds described in the Examples was evaluated by minimum inhibitory concentration (MIC) testing according to Clinical and Laboratory Standards Institute (CLSI, formerly NCCLS) guidelines. See: Clinical and Laboratory Standards Institute. Methods for Dilution Antimicrobial Susceptibility Tests for Bacteria that Grow Aerobically; Approved Standard-Seventh Edition. CLSI document M7-A7 [ISBN 1-56238-587-9]. Clinical and Laboratory Standards Institute, 940 West Valley Road, Suite 1400, Wayne, Pa. 19087-1898 USA, 2006; also Clinical and Laboratory Standards Institute. Performance Standards for Antimicrobial Susceptibility Testing; Eighteenth Informational Supplement. CLSI document M100-S18 [ISBN1-56238-653-0]. Clinical and Laboratory Standards Institute.
(§2) The following bacterial strains were used in these MIC determinations:
1) Pseudomonas aeruginosa UI-18: Wild-type, labeled as PA-7 in Tables 1, 2 and 3;

[2] = system: Klebsiella pneumoniae: Ciprofloxacin-resistant isolate, ESBL, clinical isolate (KP-3700); assay: MIC determination (CLSI), KP-3700
Procedure: as §1, §2
4) Klebsiella pneumoniae: Ciprofloxacin-resistant isolate, expresses extended-spectrum beta-lactamases (ESBL), clinical isolate, labeled as KP-3700 in Tables 1, 2, and 3.

[3] = system: Acinetobacter baumanii/haemolyticus: Multidrug-resistant clinical isolate (AB-3167); assay: MIC determination (CLSI), AB-3167; conditions: for AB-3167 MIC: Acinetobacter baumanii/haemolyticus multidrug-resistant clinical isolate AB-3167; for MIC: Acinetobacter baumannii, Table 1, read-out: AB-3167 (MIC)
Procedure: as §1, §2
2) Acinetobacter baumanii/haemolyticus: Multidrug-resistant clinical isolate labeled as AB-3167 in Tables 1, 2 and 3;

[4] = system: Escherichia coli EC-1: VOGEL, mouse virulent; assay: MIC determination (CLSI), EC-1; conditions: for EC-1 MIC: Escherichia coli EC-1 VOGEL, mouse virulent; for MIC: Escherichia coli, read-out: EC-1: (MIC)
Procedure: as §1, §2
3) Escherichia coli EC-1: VOGEL, mouse virulent labeled as EC-1 in Tables 1, 2 and 3;

SMILES	PA-7 MIC [1] [µg/mL]	KP-3700 MIC [2]	AB-3167 MIC [3]	EC-1 MIC [4]	MIC [1] [µg/mL]	MIC [3] [µg/mL]	MIC [4] [µg/mL]
COC(C)c1ccc(-c2ccc(CCC(C)(C(=O)NO)S(C)(=O)=O)cc2)cc1 (mixture of isomers) [Example 71]	4	16 µg/mL	32 µg/mL	4 µg/mL			
CC(CCc1ccc(OC2CCCC2)cc1)(C(=O)NO)S(C)(=O)=O (racemic) [Example 15, (+/−)-4-[4-(Cyclopentyloxy)phenyl]-N-hydroxy-2-methyl-2-(methylsulfonyl)butanamide]		≧64 mg/L			4 (≈ 11.3 µM)	32 (≈ 90 µM)	16 (≈ 45 µM)
CC(CCc1ccc(OCCC2CC2)cc1)(C(=O)NO)S(C)(=O)=O (racemic) [Example 17, (+/−)-4-[4-(2-Cyclopropylethoxy)phenyl]-N-hydroxy-2-methyl-2-(methylsulfonyl)butanamide]		≧64 mg/L			8 (≈ 22.5 µM)	32 (≈ 90 µM)	32 (≈ 90 µM)
CC(CCc1ccc(-n2cc3ccccc3n2)cc1)(C(=O)NO)S(C)(=O)=O (racemic) [Example 22, (+/−)-N-hydroxy-4-[4-(2H-indazol-2-yl)phenyl]-2-methyl-2-(methylsulfonyl)butanamide]		8 µg/mL			4 (≈ 10.3 µM)	≥ 64	4 (≈ 10.3 µM)
CC(C)Oc1ccc(-c2ccc(CCC(C)(C(=O)NO)S(C)(=O)=O)cc2)cc1 (racemic) [Example 49]	4	4 µg/mL	8 µg/mL	2 µg/mL			
Cc1cc(C)cc(-c2ccc(CCC(C)(C(=O)NO)S(C)(=O)=O)cc2)c1 (racemic) [Example 52]	2	4 µg/mL	8 µg/mL	2 µg/mL			
CC(CCc1ccc(-c2ccc(F)cc2F)cc1)(C(=O)NO)S(C)(=O)=O (racemic) [Example 53]	0.5	4 µg/mL	8 µg/mL	1 µg/mL			
CC(CCc1ccc(-c2c(F)cccc2F)cc1)(C(=O)NO)S(C)(=O)=O (racemic) [Example 54]	1	16 µg/mL	16 µg/mL	4 µg/mL			
COc1ccc(-c2ccc(CCC(C)(C(=O)NO)S(C)(=O)=O)cc2)cc1 (racemic) [Example 55]	0.5	2 µg/mL	16 µg/mL	0.5 µg/mL			
Cc1ccccc1-c1ccc(CCC(C)(C(=O)NO)S(C)(=O)=O)cc1 (racemic) [Example 58]	4	32 µg/mL	32 µg/mL	8 µg/mL			
COc1ccc(-c2ccc(CCC(C)(C(=O)NO)S(C)(=O)=O)cc2)c(C)c1 (racemic) [Example 60]	4	16 µg/mL	≧64 mg/L	4 µg/mL			
CC(CCc1ccc(-c2cccnc2)cc1)(C(=O)NO)S(C)(=O)=O (racemic) [Example 61]	16	≧64 mg/L	≧64 mg/L	≧64 mg/L			
COc1ccc(-c2ccc(CCC(C)(C(=O)NO)S(C)(=O)=O)cc2)c(OC)c1 (racemic) [Example 65]	2	2 µg/mL	32 µg/mL	1 µg/mL			
COc1ccc(-c2ccc(CCC(C)(C(=O)NO)S(C)(=O)=O)cc2)cc1F (racemic) [Example 66]	1	8 µg/mL	16 µg/mL	1 µg/mL			
COc1ccc(-c2ccc(CCC(C)(C(=O)NO)S(C)(=O)=O)cc2)cc1C (racemic) [Example 67]	16	8 µg/mL	≧64 mg/L	4 µg/mL			
CNS(=O)(=O)c1ccc(-c2ccc(CCC(C)(C(=O)NO)S(C)(=O)=O)cc2)cc1 (racemic) [Example 68]	4	32 µg/mL	≧64 mg/L	32 µg/mL			
CCc1ccccc1-c1ccc(CCC(C)(C(=O)NO)S(C)(=O)=O)cc1 (racemic) [Example 69]	16	≧64 mg/L	≧64 mg/L	16 µg/mL			
CC(CCc1ccc(-c2ccc(Cl)cc2Cl)cc1)(C(=O)NO)S(C)(=O)=O (racemic) [Example 70]	1	2 µg/mL	32 µg/mL	1 µg/mL			

SMILES	PA-7 MIC [1] [µg/mL]	KP-3700 MIC [2]	AB-3167 MIC [3]	EC-1 MIC [4]	MIC [1] [µg/mL]	MIC [3] [µg/mL]	MIC [4] [µg/mL]
COc1ccc(-c2ccc(CCC(C)(C(=O)NO)S(C)(=O)=O)cc2)cn1 (racemic) [Example 72]	4	32 µg/mL	≧64 mg/L	8 µg/mL			
Cc1ccc(C)c(-c2ccc(CCC(C)(C(=O)NO)S(C)(=O)=O)cc2)c1 (racemic) [Example 73]	32	≧64 mg/L	4 µg/mL	16 µg/mL			
CC(CCc1ccc(-c2ccc3c(c2)CCO3)cc1)(C(=O)NO)S(C)(=O)=O (racemic) [Example 74]	1	4 µg/mL	16 µg/mL	1 µg/mL			
CC(CCc1ccc(-c2ccc(F)c(F)c2)cc1)(C(=O)NO)S(C)(=O)=O (racemic) [Example 75]	0.5	4 µg/mL	8 µg/mL	1 µg/mL			
COc1ncccc1-c1ccc(CCC(C)(C(=O)NO)S(C)(=O)=O)cc1 (racemic) [Example 76]	16	≧64 mg/L	≧64 mg/L	32 µg/mL			
CC(CCc1ccc(-c2ccc(S(C)(=O)=O)cc2)cc1)(C(=O)NO)S(C)(=O)=O (racemic) [Example 79]	4	≧64 mg/L	≧64 mg/L	32 µg/mL			
CC(CCc1ccc(-c2cncnc2)cc1)(C(=O)NO)S(C)(=O)=O (racemic) [Example 80]	8	32 µg/mL	≧64 mg/L	8 µg/mL			
CC(CCc1ccc(-c2ccc(C#N)s2)cc1)(C(=O)NO)S(C)(=O)=O (racemic) [Example 82]	0.5	2 µg/mL	8 µg/mL	0.5 µg/mL			
CC(CCc1ccc(-c2cccc(CO)c2)cc1)(C(=O)NO)S(C)(=O)=O (racemic) [Example 84]	16	≧64 mg/L	≧64 mg/L	≧64 mg/L			
CNC(=O)c1ccc(-c2ccc(CCC(C)(C(=O)NO)S(C)(=O)=O)cc2)cc1 (racemic) [Example 85]	16	≧64 mg/L	≧64 mg/L	32 µg/mL			
COc1ccc(-c2ccc(CCC(C)(C(=O)NO)S(C)(=O)=O)cc2)c(C)n1 (racemic) [Example 86]	4	32 µg/mL	≧64 mg/L	8 µg/mL			
Cc1cccc(-c2ccc(CCC(C)(C(=O)NO)S(C)(=O)=O)cc2)c1 (racemic) [Example 87]	1	4 µg/mL	8 µg/mL	2 µg/mL			
COc1cccc(-c2ccc(CCC(C)(C(=O)NO)S(C)(=O)=O)cc2)c1F (racemic) [Example 89]	0.5	1 µg/mL	16 µg/mL	0.5 µg/mL			
CC(CCc1ccc(-c2cc(Cl)ccc2F)cc1)(C(=O)NO)S(C)(=O)=O (racemic) [Example 90]	8	8 µg/mL	8 µg/mL	8 µg/mL			
CC(CCc1ccc(-c2ccccc2)nc1)(C(=O)NO)S(C)(=O)=O (centres unmarked) [Example 3, N-Hydroxy-2-methyl-2-(methylsulfonyl)-4-(6-phenylpyridin-3-yl)butanamide]		≧64 mg/L			16 (≈ 45.9 µM)	≥ 64	16 (≈ 45.9 µM)
CC(CCc1ccc(-c2ccccc2)cn1)(C(=O)NO)S(C)(=O)=O (centres unmarked) [Example 4, N-Hydroxy-2-methyl-2-(methylsulfonyl)-4-(5-phenylpyridin-2-yl)butanamide]		≧64 mg/L			8 (≈ 23 µM)	≥ 64	16 (≈ 45.9 µM)
C[C@@](CCc1ccc(-c2ccccc2)cc1)(C(=O)NO)S(C)(=O)=O [Example 7, (2R)-4-Biphenyl-4-yl-N-hydroxy-2-methyl-2-(methylsulfonyl)butanamide]		2 µg/mL			0.5 (≈ 1.44 µM)	16 (≈ 46.1 µM)	0.5 (≈ 1.44 µM)
